Measured values: US20240122926A1, “APELIN RECEPTOR MODULATORS FOR TREATING MUSCLE CONDITIONS” (priority 2022, published 2024)
Entries after “also recorded” stand apart in the source; their conditions may differ. Like-named read-outs stand apart in the source and are kept apart here.

Legend:
[1] = tested on: healthy volunteers aged ≥65 years; test: Phase 1b bed rest study, safety (TEAEs); format: in vivo
Description: (§1) Adverse events are coded using the Medical Dictionary for Regulatory Activities. The number of events, incidence, and percentage of TEAEs are calculated overall by system organ class, preferred term, and treatment group for each cohort and treatment group. The number and percentage of subjects with TEAEs are further summarized by severity and relationship to study drug. AEs related to study drug, AEs leading to withdrawal, SAEs, and deaths are also similarly summarized and/or listed in a similar manner.

[2] = tested on: healthy volunteers aged ≥65 years; test: Phase 1b bed rest study, ultrasound muscle quality grade (echo density); format: in vivo, human
Description: One day before (baseline, D-1) and 5 (D5) and 10 (D10) days after initiation of bed rest, key muscle atrophy endpoints were measured: thigh circumference; cross-sectional area (CSA) and A-P diameter of vastus lateralis (ultrasound); ultrasound muscle quality grade, an index that quantifies fatty degeneration in muscle (ultrasound echo density); and muscle protein synthesis rate (biopsy). Parameters measured during the 10-day bed rest period include thigh circumference, muscle size, muscle quality (e.g., fatty degeneration), and muscle protein synthetic rate.
The echo density measurements showing the number of patients receiving an ultrasound muscle quality grading scale using a numerical grading system of grade 1 or a grade 2 classifying fatty muscle atrophy by measuring fatty infiltration of the muscle fibers of a biopsy from the patient. […] Open box represents normal muscle (grade 1), and striped box represents muscle that contains some fatty streaks (grade 2). […] (p=0.0019).

[3] = 9-month oral toxicity study in dogs; format: in vivo, dog
Description: The updated exposure margins considering the highest maximum exposures in rats and dogs are calculated as follows: maximum exposure in the rat (male) was in the 14-day IV study and at the 300 mg/kg dose, the AUClast is 1070 μg*hr/mL; maximum exposure in dogs occurred at the 300 mg/kg dose in the 9-month oral toxicity study and the AUClast is 1310*μg·hr/mL.

serum proteome = test: Phase 1b bed rest study, serum proteomic profiling; format: in vivo, human
Description: Proteomic profiling and analysis were performed on serum collected from the phase 1B clinical trial subjects (treated vs placebo) as described above. Eleven (11) treated and 10 placebo subject's serum levels were profiled for their proteomics collected at day −1 (baseline), day 5 and day 11. A linear regression model was implemented with an interaction term between treatment group and day to identify proteins whose differential abundance between the treatment groups influenced the average rate of change per day of a given protein. This model was fit separately for all proteins measured, and the resulting coefficient (on the interaction term) for each protein was used to rank order all proteins from most positive to most negative coefficient.
For each human aging cohort phenotype (various physical function phenotypes and mortality), two protein sets consisting respectively (to preserve directionality) of the proteins positively and negatively associated (p<0.05) with that phenotype. Significant phenotypes in the right-hand graph of FIG. 48 and FIG. 49 with their GSEA plots and p-values (significant phenotypes were not shown when their protein sets overlapped substantially with those of already shown phenotypes).

[4] = tested on: fast and slow skeletal muscle; test: snRNAseq of vastus lateralis muscle biopsies from Phase 1b study; format: in vivo, human
Description: FIG. 40 illustrates nuclei isolation for 10× Genomics single cell transcriptome gene expression technology used to assess tissue samples. […] Tissue samples were collected from patients and processed in a laboratory. Tissues were dissociated and cleaned up. The debris were removed and the sample (e.g., nuclei) was washed, resuspended for multiple cycles according to routine tissue processing procedures. Cell nuclei were visualized and counted using standard transcriptome gene expression technologies 10× Genomics single cell library technology is used for assessing tissue samples.
Cell type clustered include fast skeletal muscle, slow skeletal muscle (type 1), myofibroblast, tenocytes, fibroblasts, muscle stem cells, pericytes, smooth muscle, endothelial cells, T/NK cells, and adipocytes. Two methods and two annotations were used.

healthy adult subjects = test: Phase 1 study Part A (SAD), safety and tolerability; format: in vivo, human; conditions: SAD cohorts
Description: Safety data is summarized using descriptive statistics (number of subjects, mean, median, standard deviation, minimum, and maximum) for continuous variables and using frequency and percentages for discrete variables.
as §1

mouse APLNR = target: T1, mouse APLNR (Mus musculus, UniProt Q9WV08); test: PathHunter β-arrestin eXpress GPCR assay, CHO cells stably expressing mouse APLNR; format: cell-based; conditions: for Emax: CHO
T1 construct: host or cells: CHO cells
T1 sequence (Q9WV08 1-377): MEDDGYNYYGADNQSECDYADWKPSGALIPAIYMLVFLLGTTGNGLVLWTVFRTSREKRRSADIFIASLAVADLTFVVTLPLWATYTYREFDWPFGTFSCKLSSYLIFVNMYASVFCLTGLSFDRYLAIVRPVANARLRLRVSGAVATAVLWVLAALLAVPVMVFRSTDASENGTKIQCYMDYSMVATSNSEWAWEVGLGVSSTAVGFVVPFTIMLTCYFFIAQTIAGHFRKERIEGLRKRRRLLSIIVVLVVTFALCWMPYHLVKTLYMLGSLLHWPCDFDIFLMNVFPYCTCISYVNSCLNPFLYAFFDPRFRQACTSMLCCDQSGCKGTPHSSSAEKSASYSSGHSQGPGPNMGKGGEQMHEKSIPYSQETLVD
Description: APLNR activation was determined by β-arrestin recruitment as measured by the ProLink […] complementation technology (93-0001, DiscoveRx). In brief, CHO cells stably expressing APLNR were seeded and incubated overnight at 37° C. The compounds were tested in duplicate and diluted to obtain a 10-point curve with 3-fold serial dilutions (<1% DMSO). The compounds and cells were incubated for 3 hours at 37° C. After the incubation period the detection reagents were added and the plate chemiluminescent signal was measured after 30 min at RT.

Question: For `COc1cccc(OC)c1-n1c(NS(=O)(=O)[C@@H](C)[C@H](C)c2ncc(C)cn2)nnc1-c1cncc(C)c1` [BGE-105, (2S,3R)—N-(4-(2,6-dimethoxyphenyl)-5-(5-methyl-3-pyridinyl)-4H-1,2,4-triazol-3-yl)-3-(5-methyl-2-pyrimidinyl)-2-butanesulfonamide], which “number of volunteers (out of 11) exhibiting TEAEs” value ([1]; Cohort 1B) is on record?
Answer: 7

Question: What about the “percent of volunteers exhibiting TEAEs” value ([1]; Cohort 1B) of the same compound?
Answer: 64%

Question: And the “serious / severe adverse effects” value ([1]; Phase 1b bed rest study)?
Answer: no serious adverse effects; also recorded: no severe adverse effects

Question: What about the tolerability ([1]; Phase 1b bed rest study) of the same compound?
Answer: well tolerated

Question: What about the “Muscle grade (progression), number of subjects out of 11” value ([2]; 240 mg daily (cohort MD 1B), 10-day bed rest) of the same compound?
Answer: 1

Question: What about the “number of patients (out of 11) moving to / worsening to ultrasound muscle quality grade 2” value ([2]; after 10 days of bed rest (placebo 8 of 10)) of the same compound?
Answer: 1

Question: What about the “predicted human exposure margin Human:Dog” value ([3]; 240 mg loading dose + 1440 mg IV for 22 hours, 1036/1310) of the same compound?
Answer: 0.79

Question: And the NOAEL ([3]; dog)?
Answer: maximum dose tested

Question: What about the AUC(0-t) ([3]; dog, in vivo, dogs, 9-month oral toxicity study, 300 mg/kg, read-out: AUClast, maximum exposure) of the same compound?
Answer: 1310 µg·h/mL

Question: What about the “number of proteins associated with grip strength (out of 379) changed by treatment” value (serum proteome) of the same compound?
Answer: 58

Question: What about the “number of proteins associated with walk speed (out of 526) changed by treatment” value (serum proteome) of the same compound?
Answer: 35

Question: What about the “number of proteins associated with frailty (out of 992) changed by treatment” value (serum proteome; p<0.05) of the same compound?
Answer: 69

Question: And the “number of muscle proteins (out of 18) statistically highly expressed in fast skeletal muscle” value ([4]; treated compared to placebo)?
Answer: 15

Question: What about the “differentially expressed genes associated with treatment, fast skeletal muscle” value ([4]; vastus lateralis biopsies) of the same compound?
Answer: 3418

Question: And the “differentially expressed genes associated with treatment, slow skeletal muscle (Type 1)” value ([4]; vastus lateralis biopsies)?
Answer: 1571

Question: What about the serious adverse events (healthy adult subjects) of the same compound?
Answer: no serious adverse events

Question: And the tolerability (healthy adult subjects; all doses including 240 mg/1440 mg)?
Answer: well tolerated

Question: What about the EC50 (mouse APLNR) of the same compound?
Answer: 0.8 nM

Question: What about the Emax (mouse APLNR; read-out: maximum effect (Emax)) of the same compound?
Answer: 65%

Question: And the Emax (mouse APLNR; read-out: maximum effect (Emax), replication)?
Answer: 60%
